The results in this text go back to patent US20240122212A1 (SUNTORY HOLDINGS LIMITED, priority 2020, published 2024).

The target of assay [1] is T1, sweet taste receptor (T1R2/T1R3) (Homo sapiens, UniProt Q7RTX0+Q8TE23).
T1 construct: endogenous in cells; host or cells: taste cells in the mouths of 3 trained human panelists (in vivo spitting test)
T1 sequence (Q8TE23 20-839): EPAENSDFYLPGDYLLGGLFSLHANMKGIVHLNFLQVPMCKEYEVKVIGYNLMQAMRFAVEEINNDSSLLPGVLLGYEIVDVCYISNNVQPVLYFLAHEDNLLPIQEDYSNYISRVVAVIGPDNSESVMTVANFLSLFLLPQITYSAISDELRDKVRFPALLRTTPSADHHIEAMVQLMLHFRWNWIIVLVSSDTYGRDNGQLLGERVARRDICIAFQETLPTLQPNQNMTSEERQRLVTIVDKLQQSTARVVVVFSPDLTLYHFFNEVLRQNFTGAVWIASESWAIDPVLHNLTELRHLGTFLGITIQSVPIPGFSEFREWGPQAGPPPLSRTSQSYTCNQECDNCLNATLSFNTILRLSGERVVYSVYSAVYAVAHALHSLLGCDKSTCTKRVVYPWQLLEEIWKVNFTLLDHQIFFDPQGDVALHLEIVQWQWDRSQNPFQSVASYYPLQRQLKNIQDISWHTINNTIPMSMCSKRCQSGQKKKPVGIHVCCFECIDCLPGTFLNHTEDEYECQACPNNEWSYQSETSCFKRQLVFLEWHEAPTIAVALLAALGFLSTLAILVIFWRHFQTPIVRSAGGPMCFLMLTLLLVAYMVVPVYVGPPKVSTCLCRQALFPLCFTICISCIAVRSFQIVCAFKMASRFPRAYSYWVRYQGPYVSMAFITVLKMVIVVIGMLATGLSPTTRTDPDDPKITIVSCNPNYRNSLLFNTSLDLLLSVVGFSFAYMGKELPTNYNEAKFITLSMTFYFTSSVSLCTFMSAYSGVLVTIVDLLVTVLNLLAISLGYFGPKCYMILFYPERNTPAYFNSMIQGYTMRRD
T1 sequence (Q7RTX0 21-852): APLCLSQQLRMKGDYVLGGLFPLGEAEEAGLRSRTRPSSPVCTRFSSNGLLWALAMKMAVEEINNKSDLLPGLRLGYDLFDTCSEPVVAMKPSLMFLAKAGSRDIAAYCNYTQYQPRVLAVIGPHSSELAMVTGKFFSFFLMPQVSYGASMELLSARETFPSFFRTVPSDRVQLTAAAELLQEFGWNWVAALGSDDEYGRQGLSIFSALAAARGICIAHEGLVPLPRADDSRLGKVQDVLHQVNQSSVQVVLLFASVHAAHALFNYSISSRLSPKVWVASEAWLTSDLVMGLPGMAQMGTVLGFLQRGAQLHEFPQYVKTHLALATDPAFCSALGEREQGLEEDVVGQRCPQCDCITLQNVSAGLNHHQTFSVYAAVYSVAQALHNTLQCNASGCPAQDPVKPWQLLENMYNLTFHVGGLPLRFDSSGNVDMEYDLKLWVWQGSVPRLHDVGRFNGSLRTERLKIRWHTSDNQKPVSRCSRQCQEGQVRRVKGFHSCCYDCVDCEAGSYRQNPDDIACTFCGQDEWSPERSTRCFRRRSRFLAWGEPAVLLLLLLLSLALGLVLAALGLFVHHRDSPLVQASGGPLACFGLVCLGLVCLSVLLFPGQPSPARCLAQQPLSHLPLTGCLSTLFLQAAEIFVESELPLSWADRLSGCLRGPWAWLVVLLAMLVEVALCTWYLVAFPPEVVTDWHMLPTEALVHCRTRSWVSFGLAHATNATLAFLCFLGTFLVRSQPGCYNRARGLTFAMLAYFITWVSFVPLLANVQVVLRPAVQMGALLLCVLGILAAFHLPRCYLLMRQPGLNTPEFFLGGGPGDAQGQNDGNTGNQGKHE
Description: Sensory evaluation of sweetness intensity (VAS) in the co-presence of sweet taste receptor inhibitor lactisole (Example 5). Type of assay: in vivo. The source says: Whether or not a certain sweet substance can trigger a sweetness response even if a sweetness response through the sweet taste receptor T1R2/T1R3 is inhibited may be determined by, for instance, measuring, by sensory evaluation or cell assay, the sweetness intensity of a solution (control solution), in which only the above sweet substance has been dissolved, and the sweetness intensity (remaining sweetness intensity) of a solution (test solution), in which a sweet taste receptor T1R2/T1R3 inhibitor (e.g., lactisole, gymnemic acid) is added for inhibiting a sweetness response through the sweet taste receptor T1R2/T1R3 to the control solution; and by comparing the sweetness intensity of the control solution and the sweetness intensity of the test solution.
The evaluation was carried out by those (3 persons) who received sensory trainings as panelists. […] Additionally, solutions having the same composition as sample solutions 1, 2, 3, and 4 except that lactisole was not added were used as control solutions 1, 2, 3, and 4. The sensory evaluation was carried out by spitting test. The sweetness intensity was rated by the VAS scale and calculated with the intensity of a solution to which lactisole was not added being 100% and the sweetness intensity of a solution to which lactisole was added as a relative value (%). The sweetness inhibitory effect by lactisole was verified by this.

A short description of assay [2]: Basic taste quality sensory evaluation by trained panelists, spitting test, against 6% sucrose control (Example 1). Type of assay: in vivo, human. As to the method: In each evaluation item, the rating on a scale of −3 point to 3 point was performed, with the case where there is no difference from the control solution being 0. Quicker in sweetness onset, higher sweetness intensity, shorter lingering sweet aftertaste, lower bitterness intensity, and shorter lingering bitter aftertaste compared to the control were rated near 3 points. Slower in sweetness onset, lower sweetness intensity, longer lingering sweet aftertaste, higher bitterness intensity, and longer lingering bitter aftertaste compared to the control were rated near −3 points. That is, the closer to 0 point, the closer to the control. The evaluation was carried out by those (4 persons) who received sensory trainings as panelists by spitting test. The amount of a sweet substance contained in each sample solution was adjusted to be equal to the control solution on the calculation. […] The energy (kcal/100 ml) was calculated from the amount of the sweetener added.

The mark [3] stands for this setting: scale −3 to 3, 0 = no difference from 6% sucrose control, D-allulose 8.57 w/v %, D-arabinose 10 w/v % in pure water, 4 panelists.

As to `O=C[C@@H](O)[C@H](O)[C@H](O)CO` [D-Arabinose], the “remaining sweetness intensity when 100 ppm of lactisole was added, compared with sucrose” value in assay [1] (100 ppm lactisole) was “equal to or more than that of sucrose”. In assay [1] (lactisole-free solution = 100%, sucrose 8 w/v %, sucralose 149 ppm, D- or L-arabinose 13.3 w/v %, VAS, average of n=3), the “Sweetness intensity residual ratio (%) with addition of 100 ppm lactisole” value came out at 42.47%. In addition, the “taste quality compared with aqueous solutions containing D-allulose” value in assay [2] (aqueous solutions, Example 1) is “lower bitterness intensity and shorter lingering bitter aftertaste with the taste quality closer to sucrose”. In assay [2] (setting [3]), the Bitterness intensity is recorded as 0 point, the Lingering bitter aftertaste was −0.125 point, the Lingering sweet aftertaste amounted to 0 point and the “Quickness in sweetness onset” value came to 0.250 point. For the same compound, in assay [2] (setting [3]), the Sweetness intensity is recorded as 0 point.
